One data set concerns the target T1, E. coli β-galactosidase (Escherichia coli, UniProt P00722).
T1 construct: purchased Sigma G4155
Description: in vitro. The following applies: PBS pH 7.4, 37° C., HPLC, read-out: TG release t1/2(min). Format: biochemical. The method, then:
Compound A-1, A-2, or B-1 was dissolved in DMSO and mixed with PBS buffer solution to prepare 500 μM stock solution (1% DMSO). Methyl phenyl sulfone (MPS, CAS Number 3112-85-4, internal standard) was dissolved in PBS buffer solution to make 500 μM solution. 790 μL of PBS buffer (pH 7.4), 10 μL of the solution of compound A-1, A-2, or B-1 (500 μM) and 200 μL of MPS solution (500 μM) were mixed. Enzyme solution (E. coli β-galactosidase, Sigma G4155, 18 μL of 1 mg/mL) was added to 882 μL of the reaction mixture. When comparing with human p-galactosidase, 116 μL of the enzyme solution (0.1 mg/mL) was added, and solutions of compound A-1, A-2, or B-1 (140 μL), MPS (140 μL), and the buffer solution (533 μL, pH 7.4) were mixed.
The reaction mixture was incubated at 37° C. The enzyme reaction solution was aliquoted at 0 min before the reaction and at a predetermined time after the reaction, wherein each aliquot was 70 μL. The remaining compound A-1, A-2, or B-1, MPS, and the material liberated by the enzyme reaction were quantitatively analyzed by HPLC.

A further data set deals with SK-BR3 cancer cells. Description: Cell cytotoxicity of conjugates (MTT), SK-BR3. It counts as cell-based. The following applies: SK-BR3, 72 hours of incubation. The method, then: (§1) NCI-N87, SK-BR3 cancer cells were seeded in 96-well plates at a density of 5,000 cells per well in 100 μL of medium, and cultured for 24 hours. The eight compounds obtained in Example 55 and T-DM1 were treated by serial dilutions of 1:5 from 50 nM to 0.000128 nM. After 72 hours of incubation, 0.2 mL of 3-(4,5-dimethylthiazol-2-yl)-2,5-diphenyltetrazolium bromide (MTT) dye, dissolved in PBS buffer solution (5 mg/mL), was added to each well of the plates. The formazans formed by reduction of the MTT dye by mitochondrial oxidoreductases in the living cells were dissolved in DMSO, and measured using the absorbance at 550 nm.

A further data set deals with NCI-N87 cancer cells. The experiment in a line: Cell cytotoxicity of conjugates (MTT), NCI-N87. Format: cell-based. The settings on record: NCI-N87, 72 hours of incubation. The method, then:
as §1

As a reminder, the IC50 is the concentration that inhibits the measured activity by half. Read a low IC50 as greater potency in that assay.

Where only a bound is given, the exact number is not on record here.

T1 sequence (P00722 2-1024): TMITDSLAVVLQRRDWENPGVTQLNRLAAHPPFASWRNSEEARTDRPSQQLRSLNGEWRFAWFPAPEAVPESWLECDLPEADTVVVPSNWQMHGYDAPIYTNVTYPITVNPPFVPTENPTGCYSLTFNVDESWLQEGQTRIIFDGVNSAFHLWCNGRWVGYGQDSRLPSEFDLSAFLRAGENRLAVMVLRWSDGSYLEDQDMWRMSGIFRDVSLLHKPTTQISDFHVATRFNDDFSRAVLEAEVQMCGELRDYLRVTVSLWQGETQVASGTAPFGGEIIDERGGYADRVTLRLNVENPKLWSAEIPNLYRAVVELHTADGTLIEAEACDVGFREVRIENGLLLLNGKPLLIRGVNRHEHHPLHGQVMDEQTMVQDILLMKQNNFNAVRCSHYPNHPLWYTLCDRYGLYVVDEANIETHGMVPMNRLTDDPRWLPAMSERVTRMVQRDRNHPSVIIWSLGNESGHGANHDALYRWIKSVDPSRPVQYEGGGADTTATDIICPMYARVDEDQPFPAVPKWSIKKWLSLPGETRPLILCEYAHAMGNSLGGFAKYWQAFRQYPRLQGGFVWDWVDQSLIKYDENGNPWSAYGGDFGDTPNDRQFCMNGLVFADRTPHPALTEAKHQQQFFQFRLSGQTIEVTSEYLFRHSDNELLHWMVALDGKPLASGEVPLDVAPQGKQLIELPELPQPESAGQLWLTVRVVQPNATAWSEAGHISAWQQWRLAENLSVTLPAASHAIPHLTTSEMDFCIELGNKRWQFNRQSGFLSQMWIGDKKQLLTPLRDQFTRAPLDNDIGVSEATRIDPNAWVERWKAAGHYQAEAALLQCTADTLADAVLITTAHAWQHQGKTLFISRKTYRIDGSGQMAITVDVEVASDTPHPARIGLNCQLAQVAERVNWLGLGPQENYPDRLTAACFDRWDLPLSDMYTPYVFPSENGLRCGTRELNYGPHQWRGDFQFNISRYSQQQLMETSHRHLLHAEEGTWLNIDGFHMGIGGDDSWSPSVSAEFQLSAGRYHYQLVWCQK

As for `CNC(=O)[C@H](Cc1ccc(OS(=O)(=O)Cc2ccc(OC3O[C@H](CO)[C@H](O)[C@H](O)[C@H]3O)cc2)cc1)NC(=O)OC(C)(C)C` (some centres unmarked) [Compound A-1], the half-life at 4.9 μM on E. coli β-galactosidase was less than 5 min.
Same read-out and setting: the figure for `CNC(=O)[C@H](Cc1ccc(OS(=O)(=O)Cc2ccc(OC3O[C@H](CO)[C@H](O)[C@H](O)[C@H]3O)c(C(=O)NCCOCCOCCOCCN=[N+]=[N-])c2)cc1)NC(=O)OC(C)(C)C` (some centres unmarked) [Compound A-2] is less than 10 min; for `C[N+]1(Cc2ccc(OS(=O)(=O)Cc3ccc(OC4O[C@H](CO)[C@H](O)[C@H](O)[C@H]4O)cc3)cc2)CCCC[C@@H]1C(=O)Nc1ccccc1` (some centres unmarked) [Compound B-1] it is less than 5 min.
Take T-DM1: the IC50 in the data set with SK-BR3 cancer cells came to 0.042 nM; in the data set with NCI-N87 cancer cells it was 0.766 nM.
